The values below are quoted from earlier work in patent US20020090388A1, “Intravascular drug delivery device and use therefor” (priority 2000, published 2002).

The data set deals with primary pulmonary hypertension. Particulars: patients with primary pulmonary hypertension.

Regarding `CC#CCC(C)[C@H](O)/C=C/[C@@H]1[C@H]2C/C(=C/CCCC(=O)O)C[C@H]2C[C@H]1O` (stereo partly shown) [Iloprost], the “mean level of dose required to provide significant therapeutic benefits” value is 2.1 ng/kg/min.
